26 compounds from ChEMBL document CHEMBL1148459, “1-alkyl-4-acylpiperazines as a new class of imidazole-free histamine H(3) receptor antagonists” (J Med Chem, 2004) can be followed below.

The target in the experiment is Histamine H3 receptor (Homo sapiens, UniProt Q9Y5N1). Briefly: Antagonist potency against human histamine H3 receptor expressed in CHO cells was determined by GTPgamma-S-assay. It counts as functional, cell-based.
Histamine H3 receptor, sequence (Q9Y5N1 whole entry): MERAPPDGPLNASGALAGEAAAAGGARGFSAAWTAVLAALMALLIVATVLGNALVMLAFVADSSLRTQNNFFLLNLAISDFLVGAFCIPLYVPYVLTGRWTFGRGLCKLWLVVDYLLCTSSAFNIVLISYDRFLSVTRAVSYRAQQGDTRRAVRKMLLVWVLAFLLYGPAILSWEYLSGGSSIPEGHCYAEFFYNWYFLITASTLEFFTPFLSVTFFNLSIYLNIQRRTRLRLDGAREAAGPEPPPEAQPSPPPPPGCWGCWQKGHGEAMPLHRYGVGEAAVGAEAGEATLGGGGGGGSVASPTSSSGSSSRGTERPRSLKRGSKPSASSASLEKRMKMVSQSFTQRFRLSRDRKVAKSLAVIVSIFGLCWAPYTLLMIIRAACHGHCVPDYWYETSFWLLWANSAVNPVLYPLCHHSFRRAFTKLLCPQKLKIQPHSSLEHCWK
With `CCC(CC)N1CCN(C(=O)CCC(=O)c2ccc(OC)c(F)c2)CC1`, the Ki – broadly, the equilibrium dissociation constant of an inhibitor or competing ligand from its target – was determined as 0.43 nM.
Regarding `CCC(CC)N1CCN(C(=O)CCC(=O)c2ccc(Cl)cc2)CC1`, affinity was put at a Ki of 0.86 nM.
Compound `CCC(CC)N1CCN(C(=O)COc2ccc(OC(F)(F)F)cc2)CC1` returned a Ki of 110 nM.
In the case of `O=C(CCC(=O)N1CCN(C2CCOCC2)CC1)c1ccc(Cl)cc1`, the Ki was 9.2 nM.
The compound `CCC(CC)N1CCN(C(=O)c2ccc(OC(F)(F)F)cc2)CC1` had a Ki of 93 nM.
For the compound `C#CC(C)(C)N1CCN(C(=O)CCC(=O)c2ccc(Cl)cc2)CC1`, affinity was put at a Ki of 89 nM.
Turning to `CC(C)N1CCN(C(=O)CCC(=O)c2ccc(Cl)cc2)CC1`, affinity was put at a Ki of 4.4 nM.
Turning to `O=C(CCC(=O)N1CCN(C2CCCCCC2)CC1)c1ccc(Cl)cc1`, the Ki came out at 34 nM.
In the case of `CCC(CC)N1CCN(C(=O)Cc2ccc(C(C)=O)cc2)CC1` it was 24 nM; in that of `CCC(CC)N1CCN(C(=O)CCC(=O)c2ccc(OC(F)(F)F)cc2)CC1`, 2.7 nM; in that of `CCC(CC)N1CCN(C(=O)CCOc2ccc(Cl)cc2)CC1`, 1.2 nM.
In turn, `CCC(CC)N1CCN(C(=O)Cc2ccc(N(C)C)cc2)CC1` displayed an inhibitory constant (Ki) of 0.96 nM.
`O=C(CCC(=O)N1CCN(C2CCCCCCC2)CC1)c1ccc(Cl)cc1` displayed a Ki of 450 nM.
Compound `O=C(CCC(=O)N1CCN(CC2CC2)CC1)c1ccc(Cl)cc1` displayed a Ki of 8.3 nM.
In the case of `CCC(CC)N1CCN(C(=O)Cc2ccc(C(F)(F)F)cc2)CC1`, affinity was put at a Ki of 2.3 nM.
Compound `CCC(CC)N1CCN(C(=O)Cc2ccc(-c3ccccc3)cc2)CC1` came in with a Ki of 2.9 nM.
Take `O=C(CCC(=O)N1CCN(C2CC2)CC1)c1ccc(Cl)cc1`: the Ki came to 13.3 nM.
For `CCC(CC)N1CCN(C(=O)CCC(=O)c2ccc(C(F)(F)F)cc2)CC1`, the affinity, expressed as Ki, was 1.4 nM.
In the case of `CCC(CC)N1CCN(C(=O)CCc2ccc(C(F)(F)F)cc2)CC1` it was 8.5 nM; in that of `CCC(CC)N1CCN(C(=O)Cc2ccc(OC(F)(F)F)cc2)CC1`, 2.6 nM.
On to `O=C(CCC(=O)N1CCN(C2CCC2)CC1)c1ccc(Cl)cc1`, for which the inhibitory constant (Ki) was 1.2 nM.
`CCC(CC)N1CCN(C(=O)CCOc2ccc(C#N)cc2)CC1` gave a Ki of 0.74 nM.
`CCC(C)(C)N1CCN(C(=O)CCC(=O)c2ccc(Cl)cc2)CC1` gave an inhibition constant (Ki) of 0.54 nM.
Consider `CCCC(CCC)N1CCN(C(=O)CCC(=O)c2ccc(Cl)cc2)CC1`, for which the inhibitory constant (Ki) amounted to 480 nM.
Regarding `O=C(CCC(=O)N1CCN(C2CCCCC2)CC1)c1ccc(Cl)cc1`, the inhibitory constant (Ki) is 3.6 nM.
Consider `CCC(CC)N1CCN(C(=O)CCC(=O)c2ccc(F)cc2)CC1`, for which the inhibition constant (Ki) came out at 1.5 nM.
